{"source": "patent US8455508B2", "about": "“Sustained release parenteral formulations of buprenorphine” (priority 2007, dated 2013)", "origin": "cited, not measured here", "details": "in oil", "data": [{"smiles": "CCCCCCCCCC(=O)Oc1ccc2c3c1OC1C4(OC)CCC5(CC4C(C)(O)C(C)(C)C)C(C2)N(CC2CC2)CCC315", "note": "(stereo not shown) [buprenorphine decanoate]", "values": [{"measurement": "duration of action relative to buprenorphine HCl in saline", "value": 14, "unit": "fold"}]}]}
